Reference: PMC5342555, “ATAD2 is an epigenetic reader of newly synthesized histone marks during DNA replication” (Oncotarget, 2016)
Entries after “also recorded” stand apart in the source; their conditions may differ.

What was measured:
[1] = test system: GST-ATAD2-BD WT; assay: TR-FRET binding of biotinylated peptides to WT bromodomain; set-up: species or system human; conditions: for interaction with WT BD (TR-FRET, Figure 5C): 10 nM GST-ATAD2-BD WT, peptides at 100 nM and 1 μM
Method: (§1) TR-FRET measurements of GST-ATAD2 BD^981-1108 binding to the biotinylated synthetic peptides (Anaspec and Biosyntan) described in Supplementary Table S1 (SI Materials and Methods) were basically carried out as described recently for BRD4. For binding and competition experiments the concentration of GST-ATAD2 was 10 nM. Biotinylated peptides were tested in binding experiments at 100 nM and 1 μM, whereas the biotinylated H4K12ac tracer ([…]-K(Ac)-[…]-Biotin) was used at 50 nM in competition assays. […] All assays were performed in 50 mM HEPES pH 7.5, 100 mM NaCl, 50 mM KF, 0.25 mM CHAPS, 0.05 % BSA and 1 mM DTT and protein-peptide equilibrium complexes were detected with 10 nM of Anti-GST-XL665 MAb conjugate (Cisbio) and 2.5 nM of SA-Eu3+ Chelate (Perkin Elmer) as TR-FRET acceptor and donor molecules respectively. Raw fluorescence signals were acquired with a Pherastar FS microtiter plate reader (BMG) with 337 nm (excitation), 622 nm (donor emission) and 665 nm (acceptor emission). HTRF® ratio values were calculated as defined in the instrument software and normalized with low and high controls whenever appropriate. Competition experiments were analyzed with a four parameter logistic equation as defined in the GraphPad analysis software (http://www.graphpad.com/guides/prism/6/curve-fitting).

[2] = test system: GST-ATAD2-BD Mut; assay: TR-FRET binding of biotinylated peptides to mutant bromodomain; set-up: species or system human; conditions: 10 nM GST-ATAD2-BD Mut
Method: as §1

[3] = test system: endogenous ATAD2; assay: Peptide pull down from MCF7 nuclear extract; type: binding; conditions: immobilized histone peptides, nuclear extract from MCF7 cells
Method: H4 peptides (1-25) conjugated with Biotin was immobilized on Streptavidin-coupled Dynabeads for 2 hours at 4 °C and incubated with nuclear extract from MCF7 cells. Nuclear extract was prepared by first isolating nucleus in hypotonic buffer (10 mM Tris-HCl pH 8.5, 10 mM NaCl, 0.5 mM TCEP and 0.1 % NP-40) and disrupting nuclear envelop in high salt buffer (20 mM Tris-HCl pH 8.5, 420 mM NaCl, 0.5 mM TCEP, 0.1 % Triton X-100, 25 % Glycerol) for 2 hours at 4 °C. Soluble nuclear extract was harvested by centrifugation at 20000 g for 20 min and diluted to 1:3 in buffer without NaCl in order to achieve physiological salt concentration, 140 mM. The nuclear extract was incubated with the immobilized peptides on the Streptavidin-Dynabeads overnight at 4 °C. Next day, the beads were washed three times with washing buffer (20 mM Tris-HCl pH 8.5, 140 mM NaCl, 0.5 mM TCEP, 0.1 % Triton X-100, 25 % Glycerol) and twice with high salt buffer. Bound proteins were recovered by boiling the beads in 1X sample buffer for 5 min. at 95 °C and analyzed by SDS-PAGE and Western Blotting. For direct binding experiments 1 μM of immobilized histone peptides on Streptavidin-Dynabeads were incubated with indicated amounts of ligands for 2 hours at 4 °C. After stringent washing as described above, bound proteins were analyzed in Western Blotting.

[4] = test system: HEK293 cells; assay: Isolation of proteins on nascent DNA (iPOND) after cycloheximide; type: cell-based
Method: iPOND was performed as previously described. Briefly, exponentially growing 1 x 10^8 of HEK 293 cells were incubated with 10 μM EdU (5-ethynyl-2'-deoxyuridine) and fixed in 1 % formaldehyde for 20 min at RT after 20 min (nascent chromatin) or chased for 2 h in fresh medium before fixation (mature chromatin). Crosslinking was stopped by addition of 0.125 M glycine and cells were permeabilized in 0.25 % Triton-X-100 for 30 min at RT followed by Click reaction to couple biotin to EdU. Cells were incubated in Click reaction buffer (0.01 mM biotin azide, 10 mM sodium ascorbate, 2 mM CuSO4 in PBS) for 1-2 h at RT with constant mixing. Cells were lysed in lysis buffer (1 % SDS in 50 mM Tris pH 8.0) and chromatin was solubilized by sonication in BIORUPTOR (Diagenode) for 4 min with medium frequency and 0.5 intervals at 4 °C. Biotinylated chromatin fragments were purified on streptavidine-dynabeads (ThermoFisher) by overnight end-over-end rotation at 4 °C. After stringent washing including once with 1 M NaCl the bound chromatin was released and crosslinking was reversed by boiling the beads in 2X LDS buffer for 40 min at 100 °C. Samples were dissolved in NuPAGE Bis-Tris gel and Western blot was performed.

[5] = test system: MCF7 cells; assay: Cell growth, viable cells by AlamarBlue; type: cell-based; conditions: MCF7, 4 days after transfection, mean ± SD, n = 3

Compound	interaction with WT BD (TR-FRET, Figure 5C) [1]	interaction with mutant BD (TR-FRET, Figure 5C) [2]	further results
H4K5,12diac (1-25): biotinylated histone H4 peptide di-acetylated at K5 and K12	interact	not with mutant BD	interaction with endogenous ATAD2 (pull down, Western blotting) [3]: interacts
C[C@@H]1C[C@@H]([C@H](O)CC2CC(=O)NC(=O)C2)C(=O)[C@@H](C)C1 [cycloheximide]	–	–	recruitment of ATAD2 to nascent chromatin ([4]; HEK293, 250 μg/ml CHX […] before 10 μM EdU 20 min 37 °C, iPOND): abrogated; newly synthesized histone H4 acetylated at K12 on nascent chromatin ([4]; HEK293, CHX […], iPOND): lost; total level of ATAD2 ([4]; HEK293, CHX, Western blotting before crosslinking): unaffected
H4K5/8/12/16ac (1-25): biotinylated histone H4 peptide acetylated at K5,8,12,16, AnaSpec Cat. No. 65248-1	interact	not with mutant BD	–
H4K12ac (1-25): biotinylated histone H4 peptide acetylated at K12, AnaSpec Cat. No. 65208-1	strong binding; also recorded: interact	not with mutant BD	interaction with BD of ATAD2 (TR-FRET, Figure 5B) ([1]; 1 μM biotin-labelled peptide, 10 nM GST-ATAD2 BD, GST as control): strong interaction
H4 (1-25): biotinylated unmodified histone H4 peptide, AnaSpec Cat. No. 65242-1	–	–	interaction with endogenous ATAD2 (pull down, Western blotting) [3]: not
H4K5ac (1-25): biotinylated histone H4 peptide acetylated at K5, AnaSpec Cat. No. 65229-1	strong binding; also recorded: interact	not with mutant BD	–
5’-AGAUCACCCUCCUUAAAUAUU-3’ [PLK1]	–	–	viable cells, fluorescence intensity normalized to control siRNA treated cells [5]: 38.5%
